Experimental data taken from ChEMBL document CHEMBL4325918, “Allosteric CB1 Receptor Modulators for the Treatment of CB1 Related Diseases and Conditions” (ACS Med Chem Lett, 2018).
Calls of active or inactive are those of the source. No cut-off for these calls is given here.

Tests used:
Cannabinoid receptor 1 [1] = target: T1, Cannabinoid receptor 1 (Homo sapiens, UniProt P21554); test: Agonist activity at CB1 receptor (unknown origin) relative to CP55940
Cannabinoid receptor 1 [2] = target: T1, Cannabinoid receptor 1; test: Allosteric modulation of CB1 receptor (unknown origin) assessed as inhibition of CP55940-induced [35S]GTPgammaS binding; assay type: functional
Rattus norvegicus = test: Reduction in cocaine-induced reinstatement of cocaine seeking behavior in Sprague-Dawley rat at 10 mg/kg; assay type: functional, organism-based
[3] = Half life in Sprague-Dawley rat; assay type: ADME; settings: in vivo

T1 sequence (P21554 whole entry): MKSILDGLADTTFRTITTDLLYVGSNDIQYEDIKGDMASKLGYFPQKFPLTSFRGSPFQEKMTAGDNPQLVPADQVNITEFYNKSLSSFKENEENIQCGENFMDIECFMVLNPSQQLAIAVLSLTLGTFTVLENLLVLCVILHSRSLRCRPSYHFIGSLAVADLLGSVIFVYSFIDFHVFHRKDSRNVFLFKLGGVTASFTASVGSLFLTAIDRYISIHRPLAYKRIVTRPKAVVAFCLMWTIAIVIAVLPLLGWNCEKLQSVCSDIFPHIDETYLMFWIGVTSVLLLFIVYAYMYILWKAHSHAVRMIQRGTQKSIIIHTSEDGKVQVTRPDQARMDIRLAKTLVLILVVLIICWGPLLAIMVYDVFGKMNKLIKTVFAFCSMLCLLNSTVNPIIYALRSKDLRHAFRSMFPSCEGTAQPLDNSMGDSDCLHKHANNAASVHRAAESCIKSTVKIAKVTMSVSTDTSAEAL

Row | Emax (Cannabinoid receptor 1 [1]) [%] | IC50 (Cannabinoid receptor 1 [2]) [nM] | half-life [3] [h] | SMILES | Activity (Rattus norvegicus)
1 | 28.9 | 164 | – | O=C(Nc1ccc(Cl)cc1)Nc1cccc(-c2ccsc2)c1 | –
2 | 3.7 | 776 | – | Cc1cc(-c2cccc(NC(=O)Nc3ccc(Cl)cc3)c2)cs1 | –
3 | – | 437 | – | O=C(Nc1ccc(Cl)cc1)Nc1cccc(-c2ccccc2)c1 | –
4 | – | 151 | 5 | O=C(Nc1ccc(Cl)cc1)Nc1cccc(-c2ccc(F)cc2)c1 | Active

Continued, compound first:

Row | SMILES | Emax (Cannabinoid receptor 1 [1]) [%] | IC50 (Cannabinoid receptor 1 [2]) [nM] | half-life [3] [h] | Activity (Rattus norvegicus)
5 | Cc1ccc(-c2cccc(NC(=O)Nc3ccc(Cl)cc3)c2)s1 | 4.6 | 372 | – | –
6 | O=C(Nc1ccc(Cl)cc1)Nc1cccc(-c2ccccn2)c1 | – | 2650 | – | –
7 | O=C(Nc1ccc(Cl)cc1)Nc1cccc(N2CCC2)c1 | – | 1380 | – | –
8 | O=C(Nc1ccc(Cl)cc1)Nc1cccc(-c2cc(Cl)cc(Cl)c2)c1 | – | 299 | – | –
9 | O=C(Nc1ccc(Cl)cc1)Nc1cccc(-c2ccc(F)cc2F)c1 | – | 353 | – | –
10 | O=C(Nc1ccc(Cl)cc1)Nc1cccc(-c2ccoc2)c1 | – | 440 | – | –
11 | O=C(Nc1ccc(Cl)cc1)Nc1cccc(-c2cccc([N+](=O)[O-])c2)c1 | – | 452 | – | –
